Assays:
Experiment in all cases: Test F pre-/postemergence plant response
Assay type in all cases: in vivo
Settings in all cases: scale 0 to 100
[1] = test system: Italian ryegrass (Lolium multiflorum)
Procedure, shortened: (§1)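 Formulation: non-phytotoxic solvent mix + surfactant. Preemergence: applied to seeded silt loam. Postemergence: foliar, 1- to 4-leaf plants, 2–18 cm. Greenhouse hold 14–21 days; visual score vs controls, 0 = no effect, 100 = complete control; dash = not tested.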

[2] = test system: velvetleaf (Abutilon theophrasti)
Procedure, shortened: as §1

[3] = test system: kochia (Kochia scoparia)
Procedure, shortened: as §1

[4] = test system: large (Lg) crabgrass (Digitaria sanguinalis)
Procedure, shortened: as §1

[5] = test system: hairy beggarticks (Bidens pilosa)
Procedure, shortened: as §1

[6] = test system: yellow nutsedge (Cyperus esculentus)
Procedure, shortened: as §1

[7] = test system: fall panicum (Panicum dichotomiflorum)
Procedure, shortened: as §1

[8] = test system: nightshade (eastern black nightshade, Solanum ptycanthum)
Procedure, shortened: as §1

[9] = test system: wild poinsettia (Euphorbia heterophylla)
Procedure, shortened: as §1

[10] = test system: goosegrass (Eleusine indica)
Procedure, shortened: as §1

[11] = test system: ragweed (common ragweed, Ambrosia elatior)
Procedure, shortened: as §1

[12] = test system: soybean (Glycine max)
Procedure, shortened: as §1

[13] = test system: field bindweed (Convolvulus arvensis)
Procedure, shortened: as §1

[14] = test system: corn (Zea mays)
Procedure, shortened: as §1

[15] = test system: surinam grass (Brachiaria decumbens)
Procedure, shortened: as §1

[16] = test system: Brazilian crabgrass (Digitaria horizontalis)
Procedure, shortened: as §1

CC(F)(F)c1cc(-c2ccccc2Oc2ncc(Br)cn2)no1 [Compound 149]
0: Plant response rating, Ryegrass, Italian ([1]; 16 g ai/ha Postemergence) | Plant response rating, Ryegrass, Italian ([1]; 16 g ai/ha Preemergence) | Plant response rating, Ryegrass, Italian ([1]; 31 g ai/ha Preemergence) | Plant response rating, Kochia ([3]; 16 g ai/ha Preemergence) | Plant response rating, Kochia ([3]; 31 g ai/ha Preemergence) | Plant response rating, Crabgrass, Large ([4]; 16 g ai/ha Preemergence) | Plant response rating, Crabgrass, Large ([4]; 31 g ai/ha Preemergence) | Plant response rating, Beggarticks ([5]; 16 g ai/ha Preemergence) | Plant response rating, Beggarticks ([5]; 31 g ai/ha Preemergence) | Plant response rating, Beggarticks ([5]; 62 g ai/ha Preemergence) | Plant response rating, Beggarticks ([5]; 125 g ai/ha Preemergence) | Plant response rating, Nutsedge, Yellow ([6]; 16 g ai/ha Preemergence) | Plant response rating, Nutsedge, Yellow ([6]; 31 g ai/ha Preemergence) | Plant response rating, Nutsedge, Yellow ([6]; Preemergence) | Plant response rating, Panicum, Fall ([7]; 16 g ai/ha Preemergence) | Plant response rating, Nightshade ([8]; 16 g ai/ha Preemergence) | Plant response rating, Poinsettia, Wild ([9]; 16 g ai/ha Preemergence) | Plant response rating, Poinsettia, Wild ([9]; 31 g ai/ha Preemergence) | Plant response rating, Poinsettia, Wild ([9]; Preemergence) | Plant response rating, Goosegrass ([10]; 16 g ai/ha Preemergence) | Plant response rating, Goosegrass ([10]; 31 g ai/ha Preemergence) | Plant response rating, Soybean ([12]; 16 g ai/ha Preemergence) | Plant response rating, Soybean ([12]; 31 g ai/ha Preemergence) | Plant response rating, Soybean ([12]; Preemergence) | Plant response rating, Field Bindweed ([13]; 16 g ai/ha Preemergence) | Plant response rating, Corn ([14]; 16 g ai/ha Postemergence) | Plant response rating, Corn ([14]; 16 g ai/ha Preemergence) | Plant response rating, Corn ([14]; 31 g ai/ha Preemergence) | Plant response rating, Corn ([14]; 62 g ai/ha Preemergence) | Plant response rating, Corn ([14]; 125 g ai/ha Preemergence) | Plant response rating, Surinam Grass ([15]; 16 g ai/ha Preemergence) | Plant response rating, Surinam Grass ([15]; 31 g ai/ha Preemergence) | Plant response rating, Crabgrass, Brazil ([16]; 16 g ai/ha Preemergence)
40: Plant response rating, Ryegrass, Italian ([1]; 125 g ai/ha Preemergence) | Plant response rating, Beggarticks ([5]; 62 g ai/ha Postemergence) | Plant response rating, Panicum, Fall ([7]; 125 g ai/ha Postemergence) | Plant response rating, Poinsettia, Wild ([9]; 31 g ai/ha Postemergence) | Plant response rating, Goosegrass ([10]; Preemergence) | Plant response rating, Ragweed ([11]; 31 g ai/ha Postemergence)
90: Plant response rating, Kochia ([3]; 62 g ai/ha Postemergence) | Plant response rating, Kochia ([3]; 125 g ai/ha Preemergence) | Plant response rating, Soybean ([12]; 62 g ai/ha Postemergence) | Plant response rating, Soybean ([12]; 125 g ai/ha Postemergence)
35: Plant response rating, Poinsettia, Wild ([9]; 125 g ai/ha Preemergence) | Plant response rating, Ragweed ([11]; 125 g ai/ha Postemergence) | Plant response rating, Ragweed ([11]; Preemergence) | Plant response rating, Field Bindweed ([13]; 62 g ai/ha Preemergence) | Plant response rating, Crabgrass, Brazil ([16]; 62 g ai/ha Preemergence)
5: Plant response rating, Ryegrass, Italian ([1]; 125 g ai/ha Postemergence) | Plant response rating, Beggarticks ([5]; 16 g ai/ha Postemergence)
60: Plant response rating, Kochia ([3]; 16 g ai/ha Postemergence) | Plant response rating, Poinsettia, Wild ([9]; 62 g ai/ha Postemergence) | Plant response rating, Goosegrass ([10]; 125 g ai/ha Preemergence) | Plant response rating, Field Bindweed ([13]; 16 g ai/ha Postemergence)
95: Plant response rating, Kochia ([3]; 125 g ai/ha Postemergence)
15: Plant response rating, Nutsedge, Yellow ([6]; 125 g ai/ha Preemergence) | Plant response rating, Corn ([14]; 125 g ai/ha Postemergence) | Plant response rating, Surinam Grass ([15]; 125 g ai/ha Preemergence) | Plant response rating, Surinam Grass ([15]; Preemergence) | Plant response rating, Crabgrass, Brazil ([16]; 31 g ai/ha Preemergence)
20: Plant response rating, Ryegrass, Italian ([1]; Preemergence) | Plant response rating, Panicum, Fall ([7]; 31 g ai/ha Postemergence) | Plant response rating, Panicum, Fall ([7]; 62 g ai/ha Postemergence) | Plant response rating, Ragweed ([11]; 16 g ai/ha Preemergence) | Plant response rating, Ragweed ([11]; 125 g ai/ha Preemergence) | Plant response rating, Crabgrass, Brazil ([16]; 16 g ai/ha Postemergence) | Plant response rating, Crabgrass, Brazil ([16]; 31 g ai/ha Postemergence) | Plant response rating, Crabgrass, Brazil ([16]; 62 g ai/ha Postemergence)
25: Plant response rating, Ragweed ([11]; 31 g ai/ha Preemergence) | Plant response rating, Field Bindweed ([13]; 125 g ai/ha Preemergence) | Plant response rating, Crabgrass, Brazil ([16]; 125 g ai/ha Postemergence)
100: Plant response rating, Velvetleaf ([2]; 125 g ai/ha Preemergence) | Plant response rating, Panicum, Fall ([7]; 125 g ai/ha Preemergence) | Plant response rating, Nightshade ([8]; 125 g ai/ha Preemergence)
98: Plant response rating, Panicum, Fall ([7]; Preemergence) | Plant response rating, Nightshade ([8]; Preemergence)
75: Plant response rating, Kochia ([3]; Preemergence) | Plant response rating, Field Bindweed ([13]; 125 g ai/ha Postemergence)
50: Plant response rating, Beggarticks ([5]; 125 g ai/ha Postemergence) | Plant response rating, Poinsettia, Wild ([9]; 16 g ai/ha Postemergence) | Plant response rating, Soybean ([12]; 16 g ai/ha Postemergence) | Plant response rating, Field Bindweed ([13]; 31 g ai/ha Postemergence) | Plant response rating, Field Bindweed ([13]; 31 g ai/ha Preemergence) | Plant response rating, Field Bindweed ([13]; 62 g ai/ha Postemergence)
85: Plant response rating, Velvetleaf ([2]; Preemergence) | Plant response rating, Crabgrass, Large ([4]; 125 g ai/ha Preemergence) | Plant response rating, Soybean ([12]; 31 g ai/ha Postemergence) | Plant response rating, Crabgrass, Brazil ([16]; 125 g ai/ha Preemergence)
10: Plant response rating, Ryegrass, Italian ([1]; 31 g ai/ha Postemergence) | Plant response rating, Ryegrass, Italian ([1]; 62 g ai/ha Postemergence) | Plant response rating, Velvetleaf ([2]; 16 g ai/ha Preemergence) | Plant response rating, Panicum, Fall ([7]; 16 g ai/ha Postemergence) | Plant response rating, Ragweed ([11]; 16 g ai/ha Postemergence) | Plant response rating, Corn ([14]; 31 g ai/ha Postemergence) | Plant response rating, Corn ([14]; 62 g ai/ha Postemergence)
70: Plant response rating, Velvetleaf ([2]; 31 g ai/ha Preemergence) | Plant response rating, Crabgrass, Large ([4]; 62 g ai/ha Preemergence) | Plant response rating, Poinsettia, Wild ([9]; 125 g ai/ha Postemergence)
80: Plant response rating, Kochia ([3]; 31 g ai/ha Postemergence) | Plant response rating, Panicum, Fall ([7]; 31 g ai/ha Preemergence) | Plant response rating, Nightshade ([8]; 31 g ai/ha Preemergence)
30: Plant response rating, Beggarticks ([5]; 31 g ai/ha Postemergence) | Plant response rating, Ragweed ([11]; 62 g ai/ha Postemergence) | Plant response rating, Soybean ([12]; 125 g ai/ha Preemergence)
